Test system: patients with advanced solid tumors
Test: Treatment-related adverse events (CTCAE v5.0), phase I dose escalation
Format: in vivo
Source text: This study was a single‐arm, dose‐escalation phase I trial conducted in Sun Yat‐sen University Cancer Center in China. This study assessed CVL218 in patients with histologically or cytologically confirmed advanced solid tumors who were in PD after standard therapeutic regimens or lacked standard treatment options. Inclusion criteria included: age 18–75 years; with at least one measurable and evaluable target lesion per Response Evaluation Criteria in Solid Tumors 1.1 (RECIST 1.1); ECOG performance status of 0 or 1; adequate hematological, renal, cardiac, and hepatic functions and a life expectancy ≥12 weeks. Key exclusion criteria included prior usage of PARP inhibitors; allergic to the research drug or its components; with active, unstable systemic diseases or active, uncontrolled infection; a history of other malignancies within 5 years, and pregnant or lactating women.
CVL218 was administered orally, and this dose‐escalation trial included nine dose levels: 100 mg QD (50 mg BID), 200 mg QD (100 mg BID), 400 mg QD (200 mg BID), 700 mg QD (350 mg BID), 1000 mg QD (500 mg BID), 1200 mg QD (600 mg BID), 1400 mg QD (700 mg BID), 1700 mg QD (850 mg BID), and 2000 mg QD (1000 mg BID). Patients enrolled in the study received a single oral dose on the first day, followed by continuous multiple dosing (twice a day taking 12 h apart) after 72 h, with the treatment cycle lasting 4 weeks. The period during which patients received a single dose is designated as cycle 0 (C0), lasting 72 h. After this period, patients begin multiple dosing, referred to as cycle 1 (C1). An initial accelerated titration design was employed for the three lowest dose groups, and the “3+3” design was applied starting with the 300 mg BID cohort.
The primary objectives were to assess safety and tolerability as well as to determine the MTD, DLT, and dose recommended for further study. DLT was defined as any of the following events occurring during cycle 0 (including 72 h wash‐out period after a single dose) and cycle 1 per Common Terminology Criteria for Adverse Events (CTCAE) version 5.0: grade 4 anemia; grade 4 neutropenia; grade 3 neutropenia with fever ≥38.5°C; grade 4 thrombocytopenia; grade 3 thrombocytopenia associated with bleeding; grade ≥2 neurotoxicity; any other grade ≥3 nonhematological toxicities (excluding alopecia). The secondary objectives were to assess the PK and preliminary efficacy of CVL218.
Subjects who received at least one dose of CVL218 with postadministration safety records were included in safety analysis set. Subjects who received at least one dose of CVL218 with at least one evaluable PK parameter were included in PK analysis set. Per‐protocol set were used for efficacy analysis. Descriptive statistics of safety were presented per CTCAE v5.0. The PK parameters T max and T 1/2 were shown as the median (min, max) and mean ± SD, respectively. A two‐sided p < 0.05 was considered to indicate statistical significance. Statistical analysis was performed by using GraphPad prism 8.0.2 and R‐4.3.3.

CNCc1ccc(-c2cc3cc(F)cc(C(N)=O)c3o2)cc1.Cl [CVL218]
1 (25) n (%): WBC count increased (500 mg BID, ALL)
1 (25.0) n (%): Any AE related to study drug (500 mg BID, ≥G3)
0 n (%): Headache (200 mg BID, ≥G3) | Hypoalbuminemia (200 mg BID, ≥G3) | Infusion site pain (200 mg BID, ≥G3) | Laboratory test disorders (200 mg BID, ≥G3) | Limb discomfort (200 mg BID, ≥G3) | Lipase increased (200 mg BID, ≥G3) | Metabolic disorders (200 mg BID, ≥G3) | Musculoskeletal discomfort (200 mg BID, ≥G3) | Musculoskeletal disorders (200 mg BID, ≥G3) | Nausea (200 mg BID, ≥G3) | Nervous system disorders (200 mg BID, ≥G3) | Neutrophil count decreased (200 mg BID, ≥G3) | Neutrophil count increased (200 mg BID, ≥G3) | Palpitations (200 mg BID, ≥G3) | Protein urine present (200 mg BID, ≥G3) | Proteinuria (200 mg BID, ≥G3) | Rash (200 mg BID, ≥G3) | Renal & urinary disorders (200 mg BID, ≥G3) | Renal failure (200 mg BID, ≥G3) | Reproductive disorders (200 mg BID, ≥G3) | Skin disorders (200 mg BID, ≥G3) | Urinary occult blood positive (200 mg BID, ≥G3) | Vomiting (200 mg BID, ≥G3) | WBC count decreased (200 mg BID, ≥G3) | WBC count increased (200 mg BID, ≥G3) | Infusion site pain (350 mg BID, ALL) | WBC count increased (350 mg BID, ALL) | ALT increased (350 mg BID, ≥G3) | AST increased (350 mg BID, ≥G3) | Abdominal distension (350 mg BID, ≥G3) | Abdominal pain (350 mg BID, ≥G3) | Abdominal pain upper (350 mg BID, ≥G3) | Amylase increased (350 mg BID, ≥G3) | Anemia (350 mg BID, ≥G3) | Any AE related to study drug (350 mg BID, ≥G3) | Asthenia (350 mg BID, ≥G3) | Blood creatinine increased (350 mg BID, ≥G3) | Blood system disorders (350 mg BID, ≥G3) | Blood triglycerides increased (350 mg BID, ≥G3) | Blood urea increased (350 mg BID, ≥G3) | Cardiac disorders (350 mg BID, ≥G3) | Chest discomfort (350 mg BID, ≥G3) | Constipation (350 mg BID, ≥G3) | Decreased appetite (350 mg BID, ≥G3) | Diarrhea (350 mg BID, ≥G3) | Dizziness (350 mg BID, ≥G3) | Erectile dysfunction (350 mg BID, ≥G3) | Gastrointestinal disorders (350 mg BID, ≥G3) | General disorders (350 mg BID, ≥G3) | Gingival bleeding (350 mg BID, ≥G3) | Granulocyte count increased (350 mg BID, ≥G3) | Headache (350 mg BID, ≥G3) | Hypoalbuminemia (350 mg BID, ≥G3) | Infusion site pain (350 mg BID, ≥G3) | Laboratory test disorders (350 mg BID, ≥G3) | Limb discomfort (350 mg BID, ≥G3) | Lipase increased (350 mg BID, ≥G3) | Metabolic disorders (350 mg BID, ≥G3) | Musculoskeletal discomfort (350 mg BID, ≥G3) | Musculoskeletal disorders (350 mg BID, ≥G3) | Nausea (350 mg BID, ≥G3) | Nervous system disorders (350 mg BID, ≥G3) | Neutrophil count decreased (350 mg BID, ≥G3) | Neutrophil count increased (350 mg BID, ≥G3) | Palpitations (350 mg BID, ≥G3) | Protein urine present (350 mg BID, ≥G3) | Proteinuria (350 mg BID, ≥G3) | Rash (350 mg BID, ≥G3) | Renal & urinary disorders (350 mg BID, ≥G3) | Renal failure (350 mg BID, ≥G3) | Reproductive disorders (350 mg BID, ≥G3) | Skin disorders (350 mg BID, ≥G3) | Urinary occult blood positive (350 mg BID, ≥G3) | Vomiting (350 mg BID, ≥G3) | WBC count decreased (350 mg BID, ≥G3) | WBC count increased (350 mg BID, ≥G3) | Infusion site pain (500 mg BID, ALL) | ALT increased (500 mg BID, ≥G3) | AST increased (500 mg BID, ≥G3) | Abdominal distension (500 mg BID, ≥G3) | Abdominal pain (500 mg BID, ≥G3) | Abdominal pain upper (500 mg BID, ≥G3) | Amylase increased (500 mg BID, ≥G3) | Anemia (500 mg BID, ≥G3) | Asthenia (500 mg BID, ≥G3) | Blood creatinine increased (500 mg BID, ≥G3) | Blood system disorders (500 mg BID, ≥G3) | Blood triglycerides increased (500 mg BID, ≥G3) | Blood urea increased (500 mg BID, ≥G3) | Cardiac disorders (500 mg BID, ≥G3) | Chest discomfort (500 mg BID, ≥G3) | Constipation (500 mg BID, ≥G3) | Decreased appetite (500 mg BID, ≥G3) | Diarrhea (500 mg BID, ≥G3) | Dizziness (500 mg BID, ≥G3) | Erectile dysfunction (500 mg BID, ≥G3) | Gastrointestinal disorders (500 mg BID, ≥G3) | General disorders (500 mg BID, ≥G3) | Gingival bleeding (500 mg BID, ≥G3) | Granulocyte count increased (500 mg BID, ≥G3) | Headache (500 mg BID, ≥G3) | Hypoalbuminemia (500 mg BID, ≥G3) | Infusion site pain (500 mg BID, ≥G3) | Limb discomfort (500 mg BID, ≥G3) | Metabolic disorders (500 mg BID, ≥G3) | Musculoskeletal discomfort (500 mg BID, ≥G3) | Musculoskeletal disorders (500 mg BID, ≥G3) | Nausea (500 mg BID, ≥G3) | Nervous system disorders (500 mg BID, ≥G3) | Neutrophil count decreased (500 mg BID, ≥G3) | Neutrophil count increased (500 mg BID, ≥G3) | Palpitations (500 mg BID, ≥G3) | Protein urine present (500 mg BID, ≥G3) | Proteinuria (500 mg BID, ≥G3) | Rash (500 mg BID, ≥G3) | Renal & urinary disorders (500 mg BID, ≥G3) | Renal failure (500 mg BID, ≥G3) | Reproductive disorders (500 mg BID, ≥G3) | Skin disorders (500 mg BID, ≥G3) | Urinary occult blood positive (500 mg BID, ≥G3) | Vomiting (500 mg BID, ≥G3) | WBC count decreased (500 mg BID, ≥G3) | WBC count increased (500 mg BID, ≥G3) | Infusion site pain (600 mg BID, ALL) | WBC count increased (600 mg BID, ALL) | ALT increased (600 mg BID, ≥G3) | AST increased (600 mg BID, ≥G3)

Reference: article PMC12238723, “Phase I Clinical Trial of CVL218, a Novel PARP1/2 Inhibitor, in Patients with Advanced Solid Tumors” (MedComm, 2025)
